Source: US20250367166A1, “NEXT GENERATION DIPROVOCIMS THAT ACTIVATE THE INNATE AND ADAPTIVE IMMUNE RESPONSE” (The Scripps Research Institute, priority 2022, published 2025)
Read-outs that look alike come from different tables or passages of the source.

How the values were obtained:
TLR1/TLR2 [1] = biological target: TLR1/TLR2 (Homo sapiens, UniProt O60603+Q15399); assay: TNF-α release from PMA-differentiated human THP-1 cells (ELISA); conditions: for Emax: THP-1, 4 h, read-out: Efficacy (magnitude) of response versus diprovocim-1 (100%), THP-1;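 as to all read-outs here: cells exposed to graded compound concentrations for 4 h, TNF-α quantified in supernatant, LPS as positive and DMSO as negative control, values are duplicate means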
TLR1/TLR2 [2] = biological target: TLR1/TLR2 (Mus musculus, UniProt Q9EPQ1+Q9QUN7); assay: TNF-α release from thioglycolate-elicited mouse peritoneal macrophages (ELISA); conditions: for Emax: 4 h, read-out: Efficacy (magnitude) of response versus diprovocim-1 (100%), mouse macrophages
[3] = read-out: EC50 (nM) (THP-1): EC50 TNF-α release from human THP-1 cells, Table 1
[4] = read-out: EC50 (nM) (mouse): EC50 TNF-α release from mouse macrophages, Table 1
[5] = read-out: EC50 (nM) (THP-1): EC50 TNF-α release from human THP-1 cells, Table 3
[6] = read-out: EC50 (nM) (mouse): EC50 TNF-α release from mouse macrophages, Table 3
[7] = read-out: EC50 (nM) (THP-1): EC50 TNF-α release from human THP-1 cells, Table 5
[8] = read-out: EC50 (nM) (mouse): EC50 TNF-α release from mouse macrophages, Table 5

TLR1/TLR2 (Homo sapiens, UniProt O60603+Q15399), sequence (Q15399 25-786): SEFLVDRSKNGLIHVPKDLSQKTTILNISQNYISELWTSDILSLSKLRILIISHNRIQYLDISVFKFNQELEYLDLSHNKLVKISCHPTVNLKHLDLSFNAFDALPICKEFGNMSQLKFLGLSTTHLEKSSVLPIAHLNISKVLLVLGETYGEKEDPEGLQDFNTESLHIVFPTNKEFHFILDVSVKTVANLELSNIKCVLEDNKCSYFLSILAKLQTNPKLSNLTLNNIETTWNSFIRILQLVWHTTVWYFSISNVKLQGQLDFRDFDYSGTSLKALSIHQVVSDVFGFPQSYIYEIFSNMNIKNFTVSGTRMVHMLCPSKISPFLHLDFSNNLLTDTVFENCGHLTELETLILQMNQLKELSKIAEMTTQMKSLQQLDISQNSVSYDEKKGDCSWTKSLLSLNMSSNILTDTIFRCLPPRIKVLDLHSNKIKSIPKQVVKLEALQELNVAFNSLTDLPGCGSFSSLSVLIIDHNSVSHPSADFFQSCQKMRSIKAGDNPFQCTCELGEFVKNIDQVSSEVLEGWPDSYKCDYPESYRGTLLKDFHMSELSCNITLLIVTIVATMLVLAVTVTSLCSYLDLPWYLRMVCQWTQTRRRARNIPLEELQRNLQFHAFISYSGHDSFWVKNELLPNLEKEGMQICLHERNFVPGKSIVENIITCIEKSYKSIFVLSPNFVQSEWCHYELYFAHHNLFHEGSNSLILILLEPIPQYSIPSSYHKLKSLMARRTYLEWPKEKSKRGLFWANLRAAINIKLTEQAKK
TLR1/TLR2 (Homo sapiens, UniProt O60603+Q15399), sequence (O60603 21-784): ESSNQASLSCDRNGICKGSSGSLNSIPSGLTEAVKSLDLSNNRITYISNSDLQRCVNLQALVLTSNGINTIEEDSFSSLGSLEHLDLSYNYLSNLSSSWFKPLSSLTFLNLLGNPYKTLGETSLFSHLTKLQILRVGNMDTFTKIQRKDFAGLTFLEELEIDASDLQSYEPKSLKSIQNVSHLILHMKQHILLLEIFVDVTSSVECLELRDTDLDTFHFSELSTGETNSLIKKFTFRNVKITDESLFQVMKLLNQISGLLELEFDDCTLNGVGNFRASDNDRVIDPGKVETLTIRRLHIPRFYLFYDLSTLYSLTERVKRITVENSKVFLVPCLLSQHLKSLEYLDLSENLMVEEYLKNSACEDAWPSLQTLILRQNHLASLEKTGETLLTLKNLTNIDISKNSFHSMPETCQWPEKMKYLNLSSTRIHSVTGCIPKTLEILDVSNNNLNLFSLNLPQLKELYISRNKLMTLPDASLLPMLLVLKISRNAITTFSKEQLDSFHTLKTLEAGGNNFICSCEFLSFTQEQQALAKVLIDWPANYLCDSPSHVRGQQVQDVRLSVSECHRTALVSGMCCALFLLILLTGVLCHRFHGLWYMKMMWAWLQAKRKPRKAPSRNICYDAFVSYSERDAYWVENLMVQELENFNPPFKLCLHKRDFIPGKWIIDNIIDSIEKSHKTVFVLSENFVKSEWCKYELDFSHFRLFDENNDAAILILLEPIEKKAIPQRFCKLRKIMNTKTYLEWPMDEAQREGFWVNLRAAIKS
TLR1/TLR2 (Mus musculus, UniProt Q9EPQ1+Q9QUN7), sequence (Q9EPQ1 26-795): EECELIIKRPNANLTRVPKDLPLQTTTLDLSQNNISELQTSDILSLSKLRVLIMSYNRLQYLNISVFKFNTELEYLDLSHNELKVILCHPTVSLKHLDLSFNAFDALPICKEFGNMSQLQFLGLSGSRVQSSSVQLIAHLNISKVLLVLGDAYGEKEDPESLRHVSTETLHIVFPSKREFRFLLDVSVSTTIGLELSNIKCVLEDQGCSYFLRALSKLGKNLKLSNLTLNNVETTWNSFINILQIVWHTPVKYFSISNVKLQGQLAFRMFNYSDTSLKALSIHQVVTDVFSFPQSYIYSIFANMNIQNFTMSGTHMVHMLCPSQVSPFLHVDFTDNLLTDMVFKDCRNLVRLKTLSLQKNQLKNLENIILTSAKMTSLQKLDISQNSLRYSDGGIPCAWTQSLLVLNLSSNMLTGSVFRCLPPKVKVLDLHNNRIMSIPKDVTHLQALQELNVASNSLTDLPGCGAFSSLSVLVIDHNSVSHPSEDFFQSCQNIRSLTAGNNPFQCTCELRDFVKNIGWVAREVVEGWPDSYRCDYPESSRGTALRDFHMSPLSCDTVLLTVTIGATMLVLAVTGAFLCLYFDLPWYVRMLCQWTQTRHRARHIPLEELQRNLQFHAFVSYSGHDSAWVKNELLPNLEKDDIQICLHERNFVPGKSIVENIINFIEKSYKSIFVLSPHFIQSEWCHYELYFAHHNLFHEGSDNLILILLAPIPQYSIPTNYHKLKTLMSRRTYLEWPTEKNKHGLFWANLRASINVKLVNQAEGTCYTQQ
TLR1/TLR2 (Mus musculus, UniProt Q9EPQ1+Q9QUN7), sequence (Q9QUN7 25-784): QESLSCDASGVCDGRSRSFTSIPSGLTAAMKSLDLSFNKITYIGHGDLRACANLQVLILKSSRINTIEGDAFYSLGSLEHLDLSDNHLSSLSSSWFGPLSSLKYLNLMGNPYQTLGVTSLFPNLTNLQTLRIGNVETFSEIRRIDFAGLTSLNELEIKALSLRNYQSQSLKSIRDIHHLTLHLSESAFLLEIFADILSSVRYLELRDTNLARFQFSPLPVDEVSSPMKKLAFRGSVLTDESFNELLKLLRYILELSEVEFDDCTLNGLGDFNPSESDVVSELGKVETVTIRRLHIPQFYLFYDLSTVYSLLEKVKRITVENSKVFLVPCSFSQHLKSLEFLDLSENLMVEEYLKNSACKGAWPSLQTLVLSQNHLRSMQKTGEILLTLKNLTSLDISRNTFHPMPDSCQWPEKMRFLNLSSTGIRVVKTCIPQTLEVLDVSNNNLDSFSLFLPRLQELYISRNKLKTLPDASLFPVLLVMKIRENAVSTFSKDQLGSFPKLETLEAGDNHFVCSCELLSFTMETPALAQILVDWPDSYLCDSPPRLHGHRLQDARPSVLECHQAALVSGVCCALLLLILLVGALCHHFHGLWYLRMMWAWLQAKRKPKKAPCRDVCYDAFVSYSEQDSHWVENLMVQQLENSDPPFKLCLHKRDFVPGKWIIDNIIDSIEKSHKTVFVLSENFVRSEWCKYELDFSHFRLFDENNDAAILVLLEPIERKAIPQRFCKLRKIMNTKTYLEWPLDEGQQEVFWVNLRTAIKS

Structure (SMILES)	EC50 (TLR1/TLR2 [1]; [3]) [nM]	EC50 (TLR1/TLR2 [2]; [4]) [nM]	Emax (TLR1/TLR2 [1]) [%]	EC50 (TLR1/TLR2 [1]; [5]) [nM]	Emax (TLR1/TLR2 [2]) [%]	EC50 (TLR1/TLR2 [2]; [6]) [nM]	EC50 (TLR1/TLR2 [1]; [7]) [nM]	EC50 (TLR1/TLR2 [2]; [8]) [nM]	further results
O=C(NCCc1ccccc1)[C@@H]1CN(C(=O)c2ccc(C(=O)N3C[C@@H](C(=O)N[C@H]4C[C@@H]4c4ccccc4)[C@H](C(=O)N[C@H]4C[C@@H]4c4ccccc4)C3)cc2)C[C@H]1C(=O)N[C@H]1C[C@@H]1c1ccccc1 [Compound 23, (3S,4S)-1-(4-((3S,4S)-3,4-Bis(((1S,2R)-2-phenyl-cyclopropyl)carbamoyl)pyrrolidine-1-carbonyl)-benzoyl)-N^3-phenethyl-N^4-((1S,2R)-2-phenylcyclo-propyl)pyrrolidine-3,4-dicarboxamide]	1.5	30							
NCC(=O)OCCCCCCCCCCCCNC(=O)[C@@H]1CN(C(=O)c2ccc(C(=O)N3C[C@@H](C(=O)N[C@H]4C[C@@H]4c4ccccc4)[C@H](C(=O)N[C@H]4C[C@@H]4c4ccccc4)C3)cc2)C[C@H]1C(=O)N[C@H]1C[C@@H]1c1ccccc1 [Compound 43, 12-((3S,4S)-1-(4-((3S,4S)-3,4-Bis(((1S,2R)-2-phenylcyclopropyl)carbamoyl)pyrrolidine-1-carbonyl)benzoyl)-4-(((1S,2R)-2-phenylcyclopropyl)carbamoyl)pyrrolidine-3-carboxamido)dodecyl glycinate]			100	0.07	100	0.75			EC50 (TLR1/TLR2 [1]): 0.05 to 0.2 nM; EC50 (TLR1/TLR2 [2]): 0.7 to 5 nM
O=C(NCCCCCCCCO)[C@@H]1CN(C(=O)c2ccc(C(=O)N3C[C@@H](C(=O)N[C@H]4C[C@@H]4c4ccccc4)[C@H](C(=O)N[C@H]4C[C@@H]4c4ccccc4)C3)cc2)C[C@H]1C(=O)N[C@H]1C[C@@H]1c1ccccc1 [Compound 9, (3S,4S)-1-(4-((3S,4S)-3,4-Bis(((1S,2R)-2-phenyl-cyclopropyl)carbamoyl)pyrrolidine-1-carbonyl)-benzoyl)-N^3—(8-hydroxyoctyl)-N^4-((1S,2R)-2-phenyl-cyclopropyl)pyrrolidine-3,4-dicarboxamide]	4.3	93							
O=C(COCc1ccccc1)OCCCCCCCCCCCCNC(=O)[C@@H]1CN(C(=O)c2ccc(C(=O)N3C[C@@H](C(=O)N[C@H]4C[C@@H]4c4ccccc4)[C@H](C(=O)N[C@H]4C[C@@H]4c4ccccc4)C3)cc2)C[C@H]1C(=O)N[C@H]1C[C@@H]1c1ccccc1 [Compound 46, 12-((3S,4S)-1-(4-((3S,4S)-3,4-Bis(((1S,2R)-2-phenylcyclopropyl)carbamoyl)pyrrolidine-1-carbonyl)benzoyl)-4-(((1S,2R)-2-phenylcyclopropyl)-carbamoyl)pyrrolidine-3-carboxamido)-dodecyl 2-(benzyloxy)acetate]			130	0.06	220	5.3			EC50 (TLR1/TLR2 [1]): 0.05 to 0.2 nM; EC50 (TLR1/TLR2 [2]): 0.7 to 5 nM
CC(C)[C@H](NC(=O)OC(C)(C)C)C(=O)OCCCCCCCCCCCCNC(=O)[C@@H]1CN(C(=O)c2ccc(C(=O)N3C[C@@H](C(=O)N[C@H]4C[C@@H]4c4ccccc4)[C@H](C(=O)N[C@H]4C[C@@H]4c4ccccc4)C3)cc2)C[C@H]1C(=O)N[C@H]1C[C@@H]1c1ccccc1 [Compound 59, (S)-12-((3S,4S)-1-(4-((3S,4S)-3,4-Bis(((1S,2R)-2-phenylcyclopropyl)carbamoyl)pyrrolidine-1-carbonyl)-benzoyl)-4-(((1S,2R)-2-phenylcyclopropyl)carbamoyl)-pyrrolidine-3-carboxamido)-dodecyl 2-((tert-butoxycarbonyl)amino)-3-methylbutanoate]			100		180		1.8	19	
CC(C)(C)OC(=O)NNC(=O)OCCCCCCCCCCCCNC(=O)[C@@H]1CN(C(=O)c2ccc(C(=O)N3C[C@@H](C(=O)N[C@H]4C[C@@H]4c4ccccc4)[C@H](C(=O)N[C@H]4C[C@@H]4c4ccccc4)C3)cc2)C[C@H]1C(=O)N[C@H]1C[C@@H]1c1ccccc1 [Compound 71, 1-(12-((3S,4S)-1-(4-((3S,4S)-3,4-Bis(((1S,2R)-2-phenylcyclopropyl)carbamoyl)pyrrolidine-1-carbonyl)-benzoyl)-4-(((1S,2R)-2-phenylcyclopropyl)carbamoyl)-pyrrolidine-3-carboxamido)-dodecyl) 2-tert-butyl hydrazine-1,2-dicarboxylate]			100		220		5	25	
C#CCN(C)CC(=O)OCCCCCCCCCCCCNC(=O)[C@@H]1CN(C(=O)c2ccc(C(=O)N3C[C@@H](C(=O)N[C@H]4C[C@@H]4c4ccccc4)[C@H](C(=O)N[C@H]4C[C@@H]4c4ccccc4)C3)cc2)C[C@H]1C(=O)N[C@H]1C[C@@H]1c1ccccc1 [Compound 53, 12-((3S,4S)-1-(4-((3S,4S)-3,4-Bis(((1S,2R)-2-phenylcyclopropyl)carbamoyl)pyrrolidine-1-carbonyl)-benzoyl)-4-(((1S,2R)-2-phenylcyclopropyl)carbamoyl)-pyrrolidine-3-carboxamido)dodecyl 2-(methyl(prop-2-yn-1-yl)amino)acetate]			40	0.59	100	5.3			
[N-]=[N+]=NCCCCCCCCCCCCNC(=O)[C@@H]1CN(C(=O)c2ccc(C(=O)N3C[C@@H](C(=O)N[C@H]4C[C@@H]4c4ccccc4)[C@H](C(=O)N[C@H]4C[C@@H]4c4ccccc4)C3)cc2)C[C@H]1C(=O)N[C@H]1C[C@@H]1c1ccccc1 [Compound 20, (3S,4S)—N^3-(12-Azidododecyl)-1-(4-((3S,4S)-3,4-bis-(((1S,2R)-2-phenylcyclopropyl)carbamoyl)-pyrrolidine-1-carbonyl)benzoyl)-N^4-((1S,2R)-2-phenylcyclopropyl)-pyrrolidine-3,4-dicarboxamide]	0.07	0.6	30		50				
CC(C)(C)OC(=O)c1ccc(C(=O)NCC(=O)OCCCCCCCCCCCCNC(=O)[C@@H]2CN(C(=O)c3ccc(C(=O)N4C[C@@H](C(=O)N[C@H]5C[C@@H]5c5ccccc5)[C@H](C(=O)N[C@H]5C[C@@H]5c5ccccc5)C4)cc3)C[C@H]2C(=O)N[C@H]2C[C@@H]2c2ccccc2)cc1 [Compound 79, tert-Butyl 4-((2-((12-((3S,4S)-1-(4-((3S,4S)-3,4-bis-(((1S,2R)-2-phenylcyclopropyl)carbamoyl)-pyrrolidine-1-carbonyl)benzoyl)-4-(((1S,2R)-2-phenylcyclopropyl)-carbamoyl)pyrrolidine-3-carboxamido)dodecyl)oxy)-2-oxoethyl)carbamoyl)benzoate]			100		130				EC50 (TLR1/TLR2 [1]; read-out: EC50 (nM) (THP-1): EC50 TNF-α release from human THP-1 cells, Table 6): 6.6 nM; EC50 (TLR1/TLR2 [2]; read-out: EC50 (nM) (mouse): EC50 TNF-α release from mouse macrophages, Table 6): 465 nM
O=C(NCc1ccc(F)cc1)[C@@H]1CN(C(=O)c2ccc(C(=O)N3C[C@@H](C(=O)N[C@H]4C[C@@H]4c4ccccc4)[C@H](C(=O)N[C@H]4C[C@@H]4c4ccccc4)C3)cc2)C[C@H]1C(=O)N[C@H]1C[C@@H]1c1ccccc1 [Compound 24, (3S,4S)-1-(4-((3S,4S)-3,4-Bis(((1S,2R)-2-phenylcyclo-propyl)carbamoyl)pyrrolidine-1-carbonyl)-benzoyl)-N^3-(4-fluorobenzyl)-N^4-((1S,2R)-2-phenylcyclopropyl)-pyrrolidine-3,4-dicarboxamide]	2	30							
C[C@@H](NC(=O)OC(C)(C)C)C(=O)OCCCCCCCCCCCCNC(=O)[C@@H]1CN(C(=O)c2ccc(C(=O)N3C[C@@H](C(=O)N[C@H]4C[C@@H]4c4ccccc4)[C@H](C(=O)N[C@H]4C[C@@H]4c4ccccc4)C3)cc2)C[C@H]1C(=O)N[C@H]1C[C@@H]1c1ccccc1 [Compound 58, 12-((3S,4S)-1-(4-((3S,4S)-3,4-Bis(((1S,2R)-2-phenyl-cyclopropyl)carbamoyl)pyrrolidine-1-carbonyl)-benzoyl)-4-(((1S,2R)-2-phenylcyclopropyl)carbamoyl)-pyrrolidine-3-carboxamido)-dodecyl (tert-butoxycarbonyl)-D-alaninate]			110		200		1.7	5	
CC(C)(C)OC(=O)COCCCCCCCCCCCCNC(=O)[C@@H]1CN(C(=O)c2ccc(C(=O)N3C[C@@H](C(=O)N[C@H]4C[C@@H]4c4ccccc4)[C@H](C(=O)N[C@H]4C[C@@H]4c4ccccc4)C3)cc2)C[C@H]1C(=O)N[C@H]1C[C@@H]1c1ccccc1 [Compound 49, tert-Butyl 2-((12-((3S,4S)-1-(4-((3S,4S)-3,4-bis(((1S,2R)-2-phenylcyclopropyl)carbamoyl)-pyrrolidine-1-carbonyl)benzoyl)-4-(((1S,2R)-2-phenylcyclopropyl)carbamoyl)pyrrolidine-3-carboxamido)dodecyl)oxy)acetate]			100	15	270	1.8			
C[C@H](NC(=O)OC(C)(C)C)C(=O)OCCCCCCCCCCCCNC(=O)[C@@H]1CN(C(=O)c2ccc(C(=O)N3C[C@@H](C(=O)N[C@H]4C[C@@H]4c4ccccc4)[C@H](C(=O)N[C@H]4C[C@@H]4c4ccccc4)C3)cc2)C[C@H]1C(=O)N[C@H]1C[C@@H]1c1ccccc1 [Compound 57, (S)-12-((3S,4S)-1-(4-((3S,4S)-3,4-Bis(((1S,2R)-2-phenylcyclopropyl)carbamoyl)pyrrolidine-1-carbonyl)-benzoyl)-4-(((1S,2R)-2-phenylcyclopropyl)carbamoyl)-pyrrolidine-3-carboxamido)-dodecyl 2-((tert-butoxycarbonyl)amino)propanoate]			80		200		0.25	0.67	
